Measurements as given in ChEMBL document CHEMBL5346941, “Design, synthesis and evaluation of novel monoamine oxidase B (MAO-B) inhibitors with improved pharmacokinetic properties for Parkinson's disease” (Eur J Med Chem, 2023).

How the values were obtained:
[1] = Cmax in fasted Sprague-Dawley rat at 1 mg/kg, iv measured for 24 hrs; assay type: ADME, organism-based; set-up: dose 1 mg/kg, time 24 hrs, route iv; conditions: in vivo
[2] = Cmax in fasted Sprague-Dawley rat at 5 mg/kg, IG measured for 24 hrs; assay type: ADME, organism-based; set-up: dose 5 mg/kg, time 24 hrs, route ig; conditions: in vivo, po
[3] = Cmax in fasted ICR mouse at 2 mg/kg, iv measured for 24 hrs; assay type: ADME, organism-based; set-up: time 24 hrs, dose 2 mg/kg, route iv; conditions: in vivo
[4] = AUC (0 to t) in fasted ICR mouse at 2 mg/kg, iv measured for 24 hrs; assay type: ADME, organism-based; set-up: dose 2 mg/kg, time 24 hrs, route iv; conditions: in vivo
[5] = Elimination half life in fasted ICR mouse at 2 mg/kg, iv measured for 24 hrs; assay type: ADME, organism-based; conditions: in vivo, read-out: beta t1/2 (converted)
[6] = Volume of distribution at steady state in fasted ICR mouse at 2 mg/kg, iv measured for 24 hrs; assay type: ADME, organism-based; conditions: in vivo, read-out: Vdss
[7] = Clearance in fasted ICR mouse at 2 mg/kg, iv measured for 24 hrs; assay type: ADME, organism-based; conditions: in vivo
[8] = Cmax in fasted ICR mouse at 5 mg/kg, IG measured for 24 hrs; assay type: ADME, organism-based; set-up: dose 5 mg/kg, time 24 hrs, route ig; conditions: in vivo, po
[9] = AUC (0 to t) in fasted ICR mouse at 5 mg/kg, IG measured for 24 hrs; assay type: ADME, organism-based; set-up: dose 5 mg/kg, time 24 hrs, route ig; conditions: in vivo, po
[10] = Elimination half life in fasted ICR mouse at 5 mg/kg, IG measured for 24 hrs; assay type: ADME, organism-based; conditions: in vivo, po, read-out: beta t1/2 (converted)
[11] = Bioavailability in fasted ICR mouse at 5 mg/kg, IG measured for 24 hrs; assay type: ADME, organism-based; conditions: in vivo, po
[12] = biological target: T1, Amine oxidase [flavin-containing] A (Homo sapiens, UniProt P21397); assay: Inhibition of recombinant human MAO-A expressed in Sf9 cells using […] as substrate preincubated for 15 mins followed by substrate addition and measured after 60 mins by luciferin based luminescence analysis
T1 sequence (P21397 whole entry): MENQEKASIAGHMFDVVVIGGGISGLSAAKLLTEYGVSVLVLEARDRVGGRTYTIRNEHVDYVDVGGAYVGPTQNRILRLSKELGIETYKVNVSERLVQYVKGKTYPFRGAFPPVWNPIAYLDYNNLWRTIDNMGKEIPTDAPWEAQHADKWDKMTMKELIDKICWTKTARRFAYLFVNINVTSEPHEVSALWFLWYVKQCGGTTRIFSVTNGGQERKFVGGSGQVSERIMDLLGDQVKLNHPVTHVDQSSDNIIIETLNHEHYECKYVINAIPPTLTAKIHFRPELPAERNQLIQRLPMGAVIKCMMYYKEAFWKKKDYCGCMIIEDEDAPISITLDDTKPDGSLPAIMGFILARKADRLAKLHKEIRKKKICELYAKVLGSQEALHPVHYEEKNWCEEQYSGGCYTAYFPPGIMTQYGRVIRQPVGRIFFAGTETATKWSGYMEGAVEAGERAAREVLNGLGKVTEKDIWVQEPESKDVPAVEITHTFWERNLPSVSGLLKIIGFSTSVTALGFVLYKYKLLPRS

[13] = biological target: T2, Amine oxidase [flavin-containing] B (Homo sapiens, UniProt P27338); assay: Inhibition of recombinant human MAO-B expressed in Sf9 cells using p-tyramine as substrate preincubated for 15 mins followed by substrate addition and measured after 60 mins by luciferin based luminescence analysis
T2 sequence (P27338 whole entry): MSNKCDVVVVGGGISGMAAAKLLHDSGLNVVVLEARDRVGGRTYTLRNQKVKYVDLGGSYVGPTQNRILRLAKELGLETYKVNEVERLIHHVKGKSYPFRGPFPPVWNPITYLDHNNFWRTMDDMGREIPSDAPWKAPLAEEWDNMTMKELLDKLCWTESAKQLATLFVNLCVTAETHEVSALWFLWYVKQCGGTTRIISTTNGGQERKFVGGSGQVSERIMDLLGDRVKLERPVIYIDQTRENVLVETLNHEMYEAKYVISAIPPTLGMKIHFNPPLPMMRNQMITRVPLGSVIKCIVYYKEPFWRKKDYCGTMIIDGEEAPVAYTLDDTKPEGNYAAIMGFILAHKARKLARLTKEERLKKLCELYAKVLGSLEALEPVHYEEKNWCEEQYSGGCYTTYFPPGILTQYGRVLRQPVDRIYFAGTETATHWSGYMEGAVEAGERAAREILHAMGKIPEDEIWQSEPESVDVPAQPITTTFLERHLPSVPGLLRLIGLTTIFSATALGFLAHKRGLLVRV

[14] = AUC (0 to t) in fasted Sprague-Dawley rat at 1 mg/kg, iv measured for 24 hrs; assay type: ADME, organism-based; set-up: dose 1 mg/kg, time 24 hrs, route iv; conditions: in vivo
[15] = Elimination half life in fasted Sprague-Dawley rat at 1 mg/kg, iv measured for 24 hrs; assay type: ADME, organism-based; conditions: in vivo, read-out: beta t1/2 (converted)
[16] = Volume of distribution at steady state in fasted Sprague-Dawley rat at 1 mg/kg, iv measured for 24 hrs; assay type: ADME, organism-based; conditions: in vivo, read-out: Vdss
[17] = Clearance in fasted Sprague-Dawley rat at 1 mg/kg, iv measured for 24 hrs; assay type: ADME, organism-based; conditions: in vivo
[18] = AUC (0 to t) in fasted Sprague-Dawley rat at 5 mg/kg, IG measured for 24 hrs; assay type: ADME, organism-based; set-up: dose 5 mg/kg, time 24 hrs, route ig; conditions: in vivo, po
[19] = Elimination half life in fasted Sprague-Dawley rat at 5 mg/kg, IG measured for 24 hrs; assay type: ADME, organism-based; conditions: in vivo, po, read-out: beta t1/2 (converted)
[20] = Bioavailability in fasted Sprague-Dawley rat at 5 mg/kg, IG measured for 24 hrs; assay type: ADME, organism-based; conditions: in vivo, po
[21] = Metabolic stability in human liver microsomes assessed as half life at 1 uM incubated for 60 mins in presence of NADPH by LC-MS/MS analysis; assay type: ADME, Microsome
[22] = Metabolic stability in human liver microsomes assessed as intrinsic clearance at 1 uM incubated for 60 mins in presence of NADPH by LC-MS/MS analysis; assay type: ADME, Microsome; conditions: read-out: CLH
[23] = Metabolic stability in mouse liver microsomes assessed as half life at 1 uM incubated for 60 mins in presence of NADPH by LC-MS/MS analysis; assay type: ADME, Microsome
[24] = Metabolic stability in mouse liver microsomes assessed as intrinsic clearance at 1 uM incubated for 60 mins in presence of NADPH by LC-MS/MS analysis; assay type: ADME, Microsome; conditions: read-out: CLH
[25] = Metabolic stability in rat liver microsomes assessed as half life at 1 uM incubated for 60 mins in presence of NADPH by LC-MS/MS analysis; assay type: ADME, Microsome
[26] = Metabolic stability in rat liver microsomes assessed as intrinsic clearance at 1 uM incubated for 60 mins in presence of NADPH by LC-MS/MS analysis; assay type: ADME, Microsome; conditions: read-out: CLH
[27] = Metabolic stability in dog liver microsomes assessed as half life at 1 uM incubated for 60 mins in presence of NADPH by LC-MS/MS analysis; assay type: ADME, Canis lupus familiaris, Microsome
[28] = Metabolic stability in dog liver microsomes assessed as intrinsic clearance at 1 uM incubated for 60 mins in presence of NADPH by LC-MS/MS analysis; assay type: ADME, Canis lupus familiaris, Microsome; conditions: read-out: CLH
[29] = Drug concentration in Sprague-Dawley rat plasma at 5 mg/kg, ip measured after 15 mins by LC-MS/MS analysis; assay type: ADME, organism-based
[30] = Drug concentration in Sprague-Dawley rat plasma at 5 mg/kg, ip measured after 60 mins by LC-MS/MS analysis; assay type: ADME, organism-based
[31] = Drug concentration in Sprague-Dawley rat plasma at 5 mg/kg, ip measured after 120 mins by LC-MS/MS analysis; assay type: ADME, organism-based
[32] = Drug concentration in Sprague-Dawley rat brain at 5 mg/kg, ip measured after 15 mins by LC-MS/MS analysis; assay type: ADME, organism-based; conditions: read-out: Ct
[33] = Drug concentration in Sprague-Dawley rat brain at 5 mg/kg, ip measured after 60 mins by LC-MS/MS analysis; assay type: ADME, organism-based; conditions: read-out: Ct
[34] = Drug concentration in Sprague-Dawley rat brain at 5 mg/kg, ip measured after 120 mins by LC-MS/MS analysis; assay type: ADME, organism-based; conditions: read-out: Ct
[35] = Ratio of drug concentration in Sprague-Dawley brain to plasma at 5 mg/kg, ip measured after 15 mins by LC-MS/MS analysis; assay type: ADME, organism-based; conditions: rat, read-out: BPR
[36] = Ratio of drug concentration in Sprague-Dawley brain to plasma at 5 mg/kg, ip measured after 60 mins by LC-MS/MS analysis; assay type: ADME, organism-based; conditions: rat, read-out: BPR
[37] = Ratio of drug concentration in Sprague-Dawley brain to plasma at 5 mg/kg, ip measured after 120 mins by LC-MS/MS analysis; assay type: ADME, organism-based; conditions: rat, read-out: BPR

SMILES: NC(=O)[C@@H]1C[C@H](F)CN1Cc1ccc(OCc2cccc(F)c2)cc1
- Cmax ([1]; 24 h): 69.1 ng/mL
- Cmax [2]: 690 ng/mL
- Cmax [3]: 613 ng/mL
- AUC(0-t) at 24 h [4]: 561 ng·h/mL
- half-life [5]: 0.55 h
- Vd [6]: 2.6 L/kg
- clearance [7]: 63.3 mL/min/kg
- Cmax [8]: 833 ng/mL
- AUC(0-t) at 24 h [9]: 1080 ng·h/mL
- half-life [10]: 0.78 h
- bioavailability [11]: 77.4%

SMILES: NC(=O)[C@@H]1CCN1Cc1ccc2oc(-c3ccc(F)cc3)cc2c1
- IC50 [12]: > 10 µM
- IC50 [13]: 0.038 µM
- Cmax ([1]; Sprague-Dawley, read-out: Cmax): 213 ng/mL
- AUC(0-t) at 24 h [14]: 161 ng·h/mL
- half-life [15]: 0.482 h
- Vd [16]: 8.53 L/kg
- clearance [17]: 102 mL/min/kg
- Cmax [2]: 161 ng/mL
- AUC(0-t) at 24 h [18]: 623 ng·h/mL
- half-life [19]: 3.92 h
- bioavailability [20]: 80.9%

SMILES: COc1ccc(-c2cc3cc(CN[C@@H](C)C(N)=O)ccc3o2)cc1
- IC50 [12]: 2.78 µM
- IC50 [13]: > 10 µM

SMILES: NC(=O)[C@@H]1C[C@H](F)CN1Cc1ccc2oc(-c3cccc(F)c3)cc2c1
- IC50 [12]: 4.89 µM
- IC50 [13]: 0.055 µM
- Cmax ([1]; Sprague-Dawley, read-out: Cmax): 237 ng/mL
- AUC(0-t) at 24 h [14]: 250 ng·h/mL
- half-life [15]: 0.687 h
- Vd [16]: 4.12 L/kg
- clearance [17]: 66.4 mL/min/kg
- Cmax [2]: 409 ng/mL
- AUC(0-t) at 24 h [18]: 1500 ng·h/mL
- half-life [19]: 2.21 h
- bioavailability [20]: 126%

SMILES: COc1ccc(-c2cc3cc(CN4CC[C@H]4C(N)=O)ccc3o2)cc1
- IC50 [12]: > 10 µM
- IC50 [13]: 7.39 µM

SMILES: NC(=O)[C@@H]1CC(F)(F)CN1Cc1ccc2oc(-c3ccc(F)cc3)cc2c1
- IC50 [12]: > 10 µM
- IC50 [13]: 0.833 µM

SMILES: C[C@H](NCc1ccc(OCc2cccc(F)c2)cc1)C(N)=O [SAFINAMIDE]
- Cmax ([1]; Sprague-Dawley, read-out: Cmax): 244 ng/mL
- AUC(0-t) at 24 h [14]: 233 ng·h/mL
- half-life [15]: 1.18 h
- Vd [16]: 5.26 L/kg
- clearance [17]: 70.6 mL/min/kg
- Cmax [2]: 148 ng/mL
- AUC(0-t) at 24 h [18]: 536 ng·h/mL
- half-life [19]: 2.62 h
- bioavailability [20]: 48.5%
- Cmax [3]: 429 ng/mL
- AUC(0-t) at 24 h [4]: 930 ng·h/mL
- half-life [5]: 1.59 h
- Vd [6]: 4.53 L/kg
- clearance [7]: 34.7 mL/min/kg
- Cmax [8]: 755 ng/mL
- AUC(0-t) at 24 h [9]: 3050 ng·h/mL
- half-life [10]: 2.78 h
- bioavailability [11]: 129%
- half-life at 1 µM [21]: 8.94 h
- CLint scaled at 1 µM [22]: 2.8 mL/min/kg
- half-life at 1 µM [23]: 1.1 h
- CLint scaled at 1 µM [24]: 43.2 mL/min/kg
- half-life at 1 µM [25]: 0.331 h
- CLint scaled at 1 µM [26]: 38.3 mL/min/kg
- half-life at 1 µM [27]: 1.1 h
- CLint scaled at 1 µM [28]: 43.2 mL/min/kg
- concentration at 0.25 h [29]: 371 ng/mL
- concentration at 1 h [30]: 353 ng/mL
- concentration at 2 h [31]: 144 ng/mL
- concentration at 0.25 h [32]: 3960 ng/g
- concentration at 1 h [33]: 5100 ng/g
- concentration at 2 h [34]: 2170 ng/g
- Kp at 0.25 h [35]: 10.7
- Kp at 1 h [36]: 14.4
- Kp at 2 h [37]: 15.1

SMILES: COc1ccccc1-c1cc2cc(CN[C@@H](C)C(N)=O)ccc2o1
- IC50 [12]: 6.21 µM
- IC50 [13]: 9.49 µM
